Test results published in patent publication US20080044404A1, “Annexin V for Preventing Atherothrombosis and Plaque Rupture” (priority 2004, published 2008).
Values joined by “and” are separate entries in the source; they are usually repeats but may differ in a detail not shown here. Identical values can stand only once. Like-named read-outs stand apart in the source and are kept apart here.

Tests used:
[1] = system: human umbilical endothelia cells (HUVECs); experiment: Annexin V binding to HUVECs after 24 hrs culture with high aPLs titer serum pre-incubated with test substance, flow cytometry; format: cell-based; conditions: for Mean % of APS, Av / Median % of APS, Av: average of three; for Mean % of APS, Av / Median % of APS, Av / Mean % of APS / Median % of APS: 24 hrs culture; for Mean % of APS / Median % of APS: single experiments; for Effect on Annexin V binding to endothelial cells: preincubation of serum known to decrease binding; for Geo Mean (fluorescence) / Mean (fluorescence) / Median (fluorescence) / Peak Ch / % Gated (Annexin V positive region): file '100' 24 hrs on HUVEC
Method: Cryopreserved pooled human umbilical venous endothelial cells (HUVECs) at passage 2 were purchased from Cascade Biologics, Inc. (Portland, Oreg., USA) the cultures were maintained in EGM™ phenol red-free medium (Clonetics, San Diego, Calif., USA), containing 2% of fetal bovine serum and supplements. The cells were incubated in 75 cm2 flasks (TPP, AG, Trasadingen, Switzerland) under humidified 5% CO2 in 37° C. conditions. All experiments were performed at passage 3 to 4. HUVECs were seeded at 2×10^4 cells/ml density in 12-well plates (NUNC, Inc, Naperville, Ill., USA) for flow cytometry analysis; at density of 1×10^4 cells/well/100 μl in 96-well plate (TPP) for MTT assay; at 8×10^3 cells/ml. density in 24-well plates (NUNC) for DNA fragmentation ELISA. After allowing 12-24 hours for attachment and careful washing with serum-free medium (SFM), the cells were made quiescent in SFM for at least 12 hrs prior to treatment. Heparin-preserved plasma from the study groups was added to the monolayer at concentration of 10% in SFM.
The cells were harvested non-enzymatically with Cell Dissociation Solution (CDS; Sigma-Aldrich, St. Louis, Mo., USA). HUVECs were carefully pooled with supernatants, to exclude selective loss of detached floating EC, and centrifuged at 1200 rpm for 7 min. After resuspension in 100 μl of Annexin V-binding buffer (Molecular Probes Inc, Eugene, Oreg., USA) samples were stained with 5 mg/ml of Annexin V-FITC (Mol. Probes) and incubated for 15 min on ice. Shortly before acquisition 1 mg/ml of propidium iodide (PI; R&DSystems Europe Ltd, Abingdon, UK) was added. Analysis was performed on a FACScan flow cytometer (BD Biosciences, San Jose, Calif., USA) equipped with CellQuest™ software. During acquisition a gate was set to exclude events smaller than 230 on linear FCS and SSC scale. For each sample 10000 events were collected.
Heparin-preserved plasma with high capacity to inhibit Annexin V binding was added to HUVECs monolayer at concentration of 10% in SFM. After 24 hrs cells were harvested with Cell Dissociation Solution (CDS; Sigma-Aldrich, St. Louis, Mo., USA) and carefully pooled with supernatants, to exclude selective loss of detached floating cells, centrifugation at 1200 rpm for 7 min followed. After resuspension in 100 μl of annexin V-binding buffer (Molecular Probes Inc, Eugene, Oreg., USA) samples were stained with 2 μl of 5 mg/ml annexin V-FITC (Molecular Probes) and incubated for 15 min on ice. Shortly before acquisition 1 mg/ml of propidium iodide (PI; a vital dye; R&DSystems Europe Ltd, Abingdon, UK) was added. Analysis was performed as described above.
The frequency of HUVECs positive for Annexin V staining was determined either as percentage of annexin V^+/PI^− cells on a bivariate dot plot or percentage of Annexin V^+ cells based on a histogram. Annexin V-binding to HUVECs in the presence of serum known to decrease binding and preincubated with IVIG was determined.

[2] = Serum binding to antigen after preincubation of serum with antigen; conditions: preincubation of serum with high capacity to induce decreased binding
Excerpt: Polysorp F96 microtiter immuno-plates were purchased from Nunc (Roskilde Denmark), PC-BSA (Phosphorylcholine-Bovine Serum Albumin) was purchased from Biosearch Technologies, INC (USA). Bovine serum albumin (BSA), Alkaline phosphatase conjugated goat anti-human IgG (r-chain specific), Alkaline phosphatase conjugated goat anti-human IgM (u-chain specific), PNPP(Alkaline phosphatase substrate), were obtained from Sigma (St. Louis, Mo., USA). For example, IgG and IgM antibodies to PC-BSA were determined by enzyme-linked immunosorbent assay (ELISA). Pooled serum from 17 antiphospholipid syndrome patients was used as an internal standard and tested on every plate. […] F96 microtiter polysorp plate was therefore coated with PC-BSA (10 μg/ml) 50 μl/well in PBS. Coated plates were incubated overnight at 4° C. After five washings with PBS, the plates were blocked with 2% BSA-PBS for 2 h at room temperature and washed as described above. Serum samples were diluted (1:30) in 0.2% BSA-PBS and added at 50 μl/well.

[3] = experimental animals; cited from earlier work
[4] = humans; cited from earlier work

## CCCCCCCCCCCCCCCCOC[C@H](COP(=O)([O-])OCC[N+](C)(C)C)OC(C)=O [PAF]
[1]; 10 μg/ml
  Mean % of APS, Av: 135 % of APS
  Median % of APS, Av: 132 % of APS
  Mean % of APS: 100 % of APS and 155.6 % of APS and 149.8 % of APS
  Median % of APS: 99 % of APS and 134 % of APS and 164 % of APS
[1]; 100 μg/ml
  Mean % of APS, Av: 137 % of APS
  Median % of APS, Av: 136 % of APS
  Mean % of APS: 151 % of APS and 122 % of APS and 139 % of APS
  Median % of APS: 145 % of APS and 116 % of APS and 147 % of APS
[1]
  Effect on Annexin V binding to endothelial cells: restored Annexin V binding
[2]
  Serum binding to antigen: decreased serum binding to antigen

## C[N+](C)(C)CCOP(=O)(O)O [PC, phosphorylcholine]
[1]
  Effect on Annexin V binding to endothelial cells: no significant effect

## Annexin V: Annexin V protein, binds calcium and negatively charged phospholipids
[3]
  half-life in the circulation: 5 to 15 min
[4]
  half-life in the circulation: short half-life

## lysophosphatidylcholine [Lyso PC]
[1]; 10 μg/ml
  Mean % of APS, Av: 150 % of APS
  Median % of APS, Av: 146 % of APS
  Mean % of APS: 123.6 % of APS and 156.9 % of APS and 169.5 % of APS
  Median % of APS: 121.88 % of APS and 138.23 % of APS and 178.5 % of APS
[1]; 100 μg/ml
  Mean % of APS, Av: 156 % of APS
  Median % of APS, Av: 155 % of APS
  Mean % of APS: 158.1 % of APS and 114.7 % of APS and 195.12 % of APS
  Median % of APS: 175.39 % of APS and 115.4 % of APS and 174.65 % of APS
[1]; all events (100.00 % gated)
  Geo Mean (fluorescence): 62.95
  Mean (fluorescence): 275.37
  Median (fluorescence): 153.99
  Peak Ch: 1
[1]; second histogram region
  % Gated (Annexin V positive region): 67.03%
  Geo Mean (fluorescence): 268.96
  Mean (fluorescence): 408.50
  Median (fluorescence): 352.27
  Peak Ch: 453
[1]
  Effect on Annexin V binding to endothelial cells: restored Annexin V binding
[2]
  Serum binding to antigen: decreased serum binding to antigen

## phosphatidylserine
[1]
  Effect on Annexin V binding to endothelial cells: restored Annexin V binding
[2]
  Serum binding to antigen: decreased serum binding to antigen

## tetanus toxoid
[1]; all events (100.00 % gated)
  Geo Mean (fluorescence): 47.62
  Mean (fluorescence): 155.14
  Median (fluorescence): 113.42
  Peak Ch: 1
[1]; second histogram region
  % Gated (Annexin V positive region): 66.69%
  Geo Mean (fluorescence): 173.93
  Mean (fluorescence): 230.12
  Median (fluorescence): 212.88
  Peak Ch: 222
